Laboratory results reported in patent publication US20110066238A1, “RECONSTRUCTED CORNEA AND MUCOUS MEMBRANE” (BASF BEUTY CARE SOLUTIONS FRANCE S.A.S, priority 2008, published 2011).

Tests used:
Format in all cases: cell-based
[1] = system: reconstructed human hemi-corneas; test: Cell viability (MTT) of reconstructed human hemi-corneas treated with SDS; conditions: beyond 0.5% SDS, 10 minutes immersion
[2] = system: reconstructed human hemi-corneas; test: Cellular recovery of reconstructed human hemi-corneas treated with SDS, cell viability
Experimental: After culturing for 7, 14 or 28 days, the reconstructed human corneal stromas are analysed in the following manner: • the cultures are incubated for 2 hours at 37° C. in 2 ml of MTT (methyl thiazolyl tetrazolium) at 1 mg/ml. The negative control corresponds to the biomaterial not containing keratocytes; • the cultures are then recovered, and then incubated in 4 ml of DMSO (dimethyl sulfoxide) for 4 hours with stirring; • a fraction of the culture supernatant (200 μl) of each sample is recovered and then analysed by spectrophotocolorimetry (550 nm). The optical density read is directly proportional to the number of living cells. The biomaterial that has a porosity of between 40 and 50 μm is suitable for the proliferation of keratocytes. Indeed, the cellular proliferation kinetics of the keratocytes is proportional to the culturing time of the reconstructed human corneal stromas. Furthermore, irrespective of the conditions of manufacture of our biomaterial [1.6%, 1.4% and 1.25% dry matter], as described in Example 2, the keratocytes have a similar degree of proliferation.
After treatment with SDS, the reconstructed human hemi-corneas are rinsed with culture medium, for example, DMEM, and then recultured for at least a further 24 hours in the culture medium described for the preparation of the reconstructed human hemi-corneas (Example 5). […]

IL-6 = test: Secretion of IL-6 by reconstructed human hemi-corneas treated with SDS (membrane ARRAY); conditions: culture supernatant after at least 24 hours of reculture following SDS treatment; irritant effect without cell mortality
Experimental: After treating with SDS, the reconstructed human hemi-corneas are rinsed with culture medium, for example, DMEM, and then recultured for at least a further 24 hours in the culture medium described for the preparation of the reconstructed human hemi-corneas (Example 5).
The culture supernatants of the reconstructed human hemi-corneas are then recovered in order to assay the secreted pro-inflammatory cytokines. The culture supernatants optionally may be frozen before use.
The inventors evaluated the secretion of IL-6, for example by means of a “membrane ARRAY” method as a function of the cell viability previously studied in Example 6.

[3] = system: reconstructed human hemi-corneas; test: Histological study of reconstructed human hemi-corneas treated with SDS; conditions: 10 minutes, complete immersion; 0.5%, 1%, 2%, 3% SDS tested
Experimental: A cell suspension preferentially containing 2×10^5 corneal epithelial cells/500 μl of culture medium is seeded on the surface of the reconstructed human corneal stroma. The culture medium used is preferentially composed of DMEM/HAM F12 (2/1), 10% foetal calf serum (FCS), EGF (10 ng/ml), insulin (5 μg/ml), adenine (0.18 mM), hydrocortisone (0.4 μg/ml), cholera toxin (0.1 nM), triiodothyronine (2 nM), glutamine (4 mM), ascorbic acid (1 mM), penicillin G (100 IU/ml), gentamicin (20 μg/ml) and amphotericin B (1 μg/ml). The corneal epithelial cells are cultured by immersion for 7 days on the equivalent corneal stroma and with the medium described above.
The cultures are then raised to the air/liquid interface and then cultured for a further 14 days with a culture medium preferentially composed of DMEM, hydrocortisone (0.4 μg/ml), insulin (5 μg/ml), ascorbic acid (1 mM), penicillin G (100 IU/ml), gentamicin (20 μg/ml) and amphotericin B (1 μg/ml).
The reconstructed human hemi-corneas are treated for 10 minutes by complete immersion, with increasing solutions of SDS (0.5%, 1%, 2% and 3%). After the treatment, the reconstructed human hemi-corneas are rinsed with culture medium, for example DMEM, and then fixed, for example with formaldehyde, and then included in paraffin. […]

[4] = system: reconstructed human hemi-corneas; test: Cellular recovery of reconstructed human hemi-corneas treated with SDS, histological analysis
Experimental: The reconstructed human hemi-corneas are treated for 10 minutes by complete immersion, with increasing solutions of SDS (0.5%, 1%, 2% and 3%). After the treatment, the reconstructed human hemi-corneas are rinsed with culture medium, for example DMEM, and then fixed, for example with formaldehyde, and then included in paraffin. Paraffin slices are then prepared by microtome, preferentially at a thickness of 5 μm, and then stained, for example, with haematoxylin, phloxin and saffron. […] At and above 0.5% SDS, a histological effect on the reconstructed human hemi-corneas is observed.
After treatment with SDS, the reconstructed human hemi-corneas are rinsed with culture medium, for example, DMEM, and then recultured for at least a further 24 hours in the culture medium described for the preparation of the reconstructed human hemi-corneas (Example 5). The histological studies are performed as described in Example 5.

CCCCCCCCCCCCOS(=O)(=O)[O-].[Na+] [SDS, sodium dodecyl sulfate]
cell viability [1]: less than 75%
cell viability after recovery (T=48 h) versus after treatment (T=0 h) ([2]; 0.5% SDS): significantly equivalent
cell viability after recovery (T=48 h) versus after treatment (T=0 h) ([2]; 1%, 2% and 3% SDS): significantly lower cell viability
secretion of IL-6 (IL-6): strong secretion of IL-6
SDS concentration at which a histological effect is observed [3]: ≥ 0.5%
epithelial organization after cellular recovery (histology) ([4]; 0.5% and 1% SDS, after 48 hours of cellular recovery): epithelial organization close to that of untreated hemi-corneas
epithelial organization after cellular recovery (histology) ([4]; 2% and 3% SDS, after recovery): irreversible epithelial damage
